We go through 2 molecules from patent US20110091473A1, “NOVEL ANTIBODY THERAPIES” (GENMAB A/S, priority 2007, published 2011).

Assay [1] is described as follows: Cholesterol blood level of hypercholesterolemic patients treated with atorvastatin. Type of assay: in vivo, human. The settings on record: day 3 vs day 0, single dose 80 mg, five patients. As to the method: Further, the influence of cholesterol depletion in freshly isolated B cells of hypercholesterolemic patients treated with atorvastatin was studied. A small exploratory clinical trial was performed in which hypercholesterolemic patients (n=5) were treated with a single dose of 80 mg atorvastatin (taken in the evening) in order to reduce their cholesterol blood level and determine the effect on CD20 mAb binding on isolated B cells using flow cytometry. Approval of the study was obtained from the ethics review board of the Warsaw University Medical Center. Informed consent was provided according to the Declaration of Helsinki. […]
The cholesterol blood level was measured using automated dry chemistry system (Vitroz 250 System Chemistry (Ortho-Clinical Diagnostics, Johnson&Johnson, Piscataway, N.J.). A starting cholesterol blood level of […] was required for patients to enroll in the clinical trial. At time of recruitment, patient I.D.#4 presented with a cholesterol blood concentration […], and as such was considered hypercholesterolemic. At time of recruitment the blood cholesterol level of patient I.D.#5 turned out to be below this cut off value, and thus it can be argued whether this patient should be considered hypercholesterolemic. […] Cholesterol blood levels were subsequently measured on day 0 (pretreatment) and day 3 after treatment. […]

Assay [2] relates to RAJI-CD20high cells. Nature of the assay: Rituximab-mediated CDC of RAJI-CD20high cells, MTT assay. In kind it is cell-based, human. The note with it: lovastatin concentration range 48 hours; 10% complement active serum. From the text: Statins are competitive inhibitors of 3-hydroxy-3-methylglutaryl-coenzyme A reductase (HMG-CoAR). HMG-CoAR is a rate-limiting enzyme of the mevalonate pathway essential for the synthesis of isoprenoid compounds including cholesterol (McTaggart S J (2006) Isoprenylated proteins. Cell Mol Life Sci 63:255-267). By inhibiting HMG-CoAR, statins can lower the cholesterol blood level and extract cholesterol from the cell membrane. To determine the effect of statin-mediated cholesterol depletion on immunotherapy RAJI-CD20high cells were cultured with a concentration range of lovastatin or diluent for 48 hours.
Cell viability was measured in a MTT assay in which 3-(4,5-dimethylthiazol-2-yl)-2,5-diphenyltetrazolium bromide (MTT) solution (5 mg/ml, Roche, Diagnostics, Almere, The Netherlands) was added to each well (flat-bottom microtiter plates; Nunc, Rochester, N.Y.). The reaction was stopped after 4 hours of incubation at 37° C. by the addition of 100 μl of 20% SDS (Roche Diagnostics, Almere, The Netherlands). After overnight incubation at 37° C. the absorbance of the samples was measured at 550-525 nm using an Elisa reader (EL808x, Biotek instruments, Highland park, Vt., USA). Cytotoxicity was expressed as a relative viability of the rituximab-mediated CDC of lovastatin-treated cells compared to cells incubated with medium only and was calculated as follows: relative viability=[(Ae−Ab)/(Ac−Ab)]*100, where Ab is the background absorbance, Ae is experimental absorbance of the lysed cells and Ac is the absorbance of untreated cells. The viability was expressed as percentage survival in comparison to non-cholesterol depleted cells (control).
RAJI-CD20high cells were incubated with diluents (control) or a concentration range of either Fillipin III for 30 minutes or Berberine chloride for 24 hours. […] The cytotoxic effects were measured in a MTT assay. […] After overnight incubation at 37° C. the absorbance of the samples was measured at 550-525 nm using an Elisa reader (EL808x, Biotek instruments, Highland park, Vt., USA). […]

The subject of assay [3] is CD20 mRNA. The assay is described as follows: CD20 mRNA level by RT-PCR in RAJI-CD20high cells. The note with it: 10 μM, time course over 48 hours. In kind it is cell-based, human. As to the method:
To analyze whether lovastatin treatment would influence CD20 expression mRNA expression of the target was determined. RAJI-CD20high cells were incubated with either diluent (control) or 10 μM of lovastatin for different time periods (1-48 hours). Cells were washed twice with PBS, pelleted and treated with 1 ml of TRIzol Reagent (Invitrogen) to extract total RNA according to the manufacturer's protocol. RNA concentration was measured with Eppendorf Biophotometer (Eppendorf, Hamburg, Germany). The first strand cDNA synthesis containing 1 μg of total RNA was primed with oligo(dT) using Omniscript RT Kit (Qiagen, Chatsworth, Calif.). Primers used for CD20 PCR amplification were: forward-5′ […]3′ and reverse-5′ […]3′. The cycling conditions in the Mastercycler personal (Eppendorf) consisted of a first step of 94° C. denaturation for 10 minutes, followed by 35 cycles of annealing at 54° C. for 60 sec, extension at 75° C. for 90 sec, and denaturation at 94° C. for 30 sec, with a final elongation step at 75° C. for 10 minutes using HotStart Taq DNA Polymerase (Qiagen). Amplification products were analyzed by 1.5% agarose gel electrophoresis.

The subject of assay [4] is CD20 protein. Nature of the assay: Total cellular CD20 protein level by Western blotting in RAJI-CD20high cells. In kind it is cell-based, human. The settings on record: 5-30 μM, 48 hours. As to the method:
Control cells or cells incubated with 10 μM lovastatin for 48 hours, washed twice with PBS, were pelleted and lysed with radioimmunoprecipitation assay (RIPA) buffer containing Tris base 50 mM, NaCl 150 mM, NP-40 1%, sodium deoxycholate 0.25% and EDTA 1 mM supplemented with Complete® protease inhibitor cocktail tablets (Roche Diagnostics, Mannheim, Germany). Protein concentration was measured using Bio-Rad Protein Assay (BioRad, Hercules, Calif., USA). Equal amounts of whole cell proteins were separated on 12.5% SDS-polyacrylamide gel, transferred onto Protran® nitrocellulose membranes (Schleicher and Schuell BioScience Inc., Keene, N.H.), blocked with TBST (Tris buffered saline (pH 7.4) and 0.05% Tween 20) supplemented with 5% nonfat milk and 5% FBS. The following mAb (at 1:1000 dilution) were used for the overnight incubation: anti-CD20 (NCL-CD20-L26, Novocastra Laboratories Ltd, UK), anti-ICAM-1 (Santa Cruz, Santa Cruz, Calif.). After extensive washing with TBST, the membranes were incubated for 45 minutes with peroxidase conjugated ImmunoPure Goat Anti-Mouse IgG [F(ab′)2] (Jackson ImmunoResearch Laboratories Inc, Pa.). The chemiluminescence reaction for horseradish peroxidase was developed using SuperSignal WestPico Trail Kit® (Pierce, Rockford, Ill.) on a standard x-ray film. […]
(A western blot detects proteins with antibodies after separation by electrophoresis.)

Assay [5] relates to CD20 in the plasma membrane. The assay is described as follows: CD20 localization in RAJI-CD20high cells (immunofluorescence, surface biotinylation). In kind it is cell-based, human.
Method: To examine localization of CD20 in RAJI-CD20high cells a double immunofluorescence staining with anti-CD20 mAb directed against an extracellular conformational epitope of CD20, and, after cell permeabilization, with a mAb against a linear epitope in the cytosolic tail of this molecule was performed. Control and lovastatin-pretreated RAJI-CD20high cells were stained in suspension at a density of 5×10^5/ml with FITC-conjugated B9E9 (1:10 in PBS, Immunotech Coulter Company, France) for 30 minutes at room temperature. After washing in PBS (three times), 200 μl of the cell suspension was spun onto a Cytospin slide. The slides were air-dried, acetone-fixed for 15 minutes at room temperature, washed three times with PBS, incubated with anti-CD20 mAb (Novocastra) (1:100 in PBS with 5% normal donkey serum (Jackson)) for 60 minutes at room temperature. The slides were washed three times in PBS and incubated with donkey anti-mouse Alexa555 conjugated antibody (Molecular Probes, CA) (1:200 for 30 minutes at room temperature). The slides were washed, mounted in Vectashield (Vector Laboratories, CA.) and examined by fluorescence microscopy (Leica TCS SP2). […] After five washes, gel-bound complexes were boiled in 2× Laemmli sample buffer and analyzed for CD20 by Western blotting using anti-CD20 mAb (NCL-CD20-L26, Novocastra) as described in Example 8.
Assay [6] has as its system cell surface proteins on RAJI cells. The assay is described as follows: FACS binding of mAbs to cell surface proteins on RAJI cells. Type of assay: cell-based, human. The note with it: 10 μM lovastatin. As to the method:
B cells (either non-treated cells, cholesterol-depleted cells via MβCD or lovastatin, or cholesterol-reconstituted cells) were characterized for quantitative surface expression of the B cell markers CD19, CD20, and CD21, the T-cell marker CD3, complement regulatory proteins CD55 and CD59, and HLA-DR and CD81 by direct immunofluorescence. […] After washing twice with FACS buffer (PBS, 0.1% Bovine Serum Albumine, 0.02% Sodium Azide), the cells were analyzed on a flow cytometer.
(In general: Flow cytometry measures light scatter and fluorescence of single cells or particles in a stream.)

Consider `CC(C)c1c(C(=O)Nc2ccccc2)c(-c2ccccc2)c(-c2ccc(F)cc2)n1CC[C@@H](O)C[C@@H](O)CC(=O)O` [atorvastatin], for which, in assay [1], the “reduction of average cholesterol blood concentration” value worked out at 17%.

For `CC[C@H](C)C(=O)O[C@H]1C[C@@H](C)C=C2C=C[C@H](C)[C@H](CC[C@@H]3C[C@@H](O)CC(=O)O3)[C@H]21` [lovastatin], the “protection from rituximab-induced CDC (cell viability)” value in assay [2] is “concentration-dependent protection”. In addition, the “mRNA level for CD20” value in assay [3] was “remained constant”. Moreover, the “total cellular CD20 protein level” value in assay [4] is on record as “did not influence”. The “binding of mAb directed to the extracellular epitope of CD20” value in assay [5] (48-hour pre-treatment, confocal immunofluorescence) is recorded as “nearly completely abrogated binding”. Moreover, the “CD20 detectable among biotinylated surface proteins” value in assay [5] (treated cells compared with controls) was “comparable amounts”. For the same molecule, in assay [6], the “decrease of mAb binding of CD21” value was “not”; the “mAb binding of CD19 and CD20” value is reported as “clearly decreased”.
